# Patent publication US11357739B2, “Pimarane diterpenoids for use in wound healing and angiogenesis” (UNIVERSITY OF SOUTH CAROLINA, priority 2017, dated 2022)
# Columns and labels:
# [1] = test system: NHEKs; test: In vitro scratch assay (cell migration, wound closure); type: cell-based, human
# Procedure: (§1) Human umbilical vein endothelial cells (HUVECs), adult normal human epidermal keratinocytes (NHEKs), normal human dermal fibroblasts (NHDFs) and related media for cell culture including endothelial basal and growth medium-2 (EBM-2, EGM-2), keratinocyte basal and growth medium-2 (KBM-2, KGM™-2), fibroblast basal and growth medium (FBM, FGM™) were purchased from Lonza. Cells were incubated at 37° C. and 5% CO2 throughout the experiments. Phosphate-Buffered Saline (PBS), [3-(4,5-dimethylthiazol-2-yl)-5-(3-carboxymethoxyphenyl)-2-(4-sulfophenyl)-2H-tetrazolium (MTS) (Promega) colorimetric assay and growth factor reduced matrigel BD (Corning) were from Sigma-Aldrich. Culture-Insert 2 Well 24 IbiTreat was used for the scratch assay.
# Cell migration of NHEKs was assessed through making a cell-free gap with a Culture-insert 2 well 24, consisting of two wells that were separated by a wall. A total of 70 μl of cell suspension comprising of 35×10^3 cell was applied in each well. Cells were given 24 hours to attach and reach confluency. Culture inserts were then removed, and cell debris was washed with PBS. The samples were supplemented with different concentration of the compound of interest in growth media and incubated at 37° C. and 5% CO2 for 20 hours. Images were taken every 4 hours using a phase contrast Nikon Eclipse Ti-E inverted microscope. Quantification of percent wound healing was performed by measuring the gap distance using the following formula:
# [formula] in which Wn is the width of gap after every 4 hours and W0 is the initial width zero right after forming a scratch. Capillary Tube Formation
# [2] = test system: normal human epidermal keratinocytes (NHEKs); test: Cytotoxicity assay (MTS), cell proliferation and viability; type: cell-based; conditions: 24 hours of exposure, 0.1 to 1 μg/mL, vs control and DMSO vehicle control
# Procedure: as §1
# (§2) In order to determine cell viability, HUVECs, NHDFs, NHEKs were cultured in their respective growth media to reach 80% confluency. Cells were seeded at the density of 3×10^3 cell per 96 well plate in a total volume of 100 μl in each well. After seeding, the cells were incubated for 24 hours at 37° C. and 5% CO2 to allow for cell attachment. Media was changed and replaced with media supplemented with the desired concentration of the compound of interest (0.1, 0.5, 1 and 10 μg/mL), being first dissolved at 10,000 μg/mL in DMSO and subsequently diluted in culture media. The vehicle control was culture medium supplemented with DMSO 0.1% (Macron Fine Chemicals), representing the highest final concentration of DMSO used to dissolve the natural compound. Following 24 hours of incubation, […] and incubated for 2 hours. Colored formazan absorbance which was produced by bio-reduction of MTS tetrazolium compound in live cells was read at 490 nm using a Spectramax 190 spectrophotometer and cell proliferation was assessed. A standard calibration curve at different concentration of cells was prepared to correlate cell number to absorbance.
# [3] = test system: normal human dermal fibroblasts (NHDFs); test: as above; type: cell-based; conditions: 24 hours of exposure, 0.1 to 1 μg/mL, vs control and DMSO vehicle control
# Procedure: as §1, §2
# [4] = test system: human umbilical vein endothelial cells (HUVECs); test: as above; type: cell-based; conditions: 24 hours of exposure, 0.1 to 1 μg/mL, vs control and DMSO vehicle control
# Procedure: as §1, §2
# [5] = test system: HUVECs; test: Capillary tube formation on matrigel; type: cell-based, human; conditions: 1 μg/mL, 8 hours
# Procedure: as §1
# Matrigel was kept in a −20° C. freezer and thawed on ice overnight in a 4° C. refrigerator. A total of 50 μl of thawed matrigel was added to each well of pre-chilled 96-well plate and then incubated for 30 min at 37° C. to form a gel. Next, 100 μl of a HUVEC cell suspension (passage 2-6) in conditioned media (20000 cell/well), including the compound of this invention, was added to gel and incubated at 37° C. for 8 hours. The number of junctions in tubes was examined using a phase contrast inverted microscope (Invitrogen EVOS FL Auto Cell Imaging) and compared to the conditions with no compound (negative control) and VEGF growth factor (positive control).
compound,measurement,setting,value
C=CC1(C)CC2=CCC3C(C)(C)CCC(O)C3(C)C2CC1O (stereo not shown) [compound of FIG. 1],migration during exposure time,"[1]; 1 μg/mL, compared with untreated cells and 0.1 μg/mL",higheast migration
same,percentage of wound closure relative to non-treated control groups,"[1]; 1 μg/mL, four hours post-treatment",~10 fold
same,wound closure of NHEKs,"[1]; 0.1 and 1 μg/mL, monitored for 20 hours, vs untreated control",significantly enhance the wound closure
same,cell toxicity (MTS),[2],no cell toxicity
same,cell toxicity (MTS),[3],no cell toxicity
same,cell toxicity (MTS),[4],no cell toxicity
same,"tube formation, more than the control (untreated cell)",[5],60%
